{"source": "patent US10202344B2", "about": "“Aryl substituted indoles and the use thereof” (Purdue Pharma L.P., priority 2010, dated 2019)", "key": {"human Nav1.7": {"target": "human Nav1.7 (Homo sapiens (Human), UniProt Q15858)", "sequence (Q15858 other isoform, or with tags, fused parts or gaps)": "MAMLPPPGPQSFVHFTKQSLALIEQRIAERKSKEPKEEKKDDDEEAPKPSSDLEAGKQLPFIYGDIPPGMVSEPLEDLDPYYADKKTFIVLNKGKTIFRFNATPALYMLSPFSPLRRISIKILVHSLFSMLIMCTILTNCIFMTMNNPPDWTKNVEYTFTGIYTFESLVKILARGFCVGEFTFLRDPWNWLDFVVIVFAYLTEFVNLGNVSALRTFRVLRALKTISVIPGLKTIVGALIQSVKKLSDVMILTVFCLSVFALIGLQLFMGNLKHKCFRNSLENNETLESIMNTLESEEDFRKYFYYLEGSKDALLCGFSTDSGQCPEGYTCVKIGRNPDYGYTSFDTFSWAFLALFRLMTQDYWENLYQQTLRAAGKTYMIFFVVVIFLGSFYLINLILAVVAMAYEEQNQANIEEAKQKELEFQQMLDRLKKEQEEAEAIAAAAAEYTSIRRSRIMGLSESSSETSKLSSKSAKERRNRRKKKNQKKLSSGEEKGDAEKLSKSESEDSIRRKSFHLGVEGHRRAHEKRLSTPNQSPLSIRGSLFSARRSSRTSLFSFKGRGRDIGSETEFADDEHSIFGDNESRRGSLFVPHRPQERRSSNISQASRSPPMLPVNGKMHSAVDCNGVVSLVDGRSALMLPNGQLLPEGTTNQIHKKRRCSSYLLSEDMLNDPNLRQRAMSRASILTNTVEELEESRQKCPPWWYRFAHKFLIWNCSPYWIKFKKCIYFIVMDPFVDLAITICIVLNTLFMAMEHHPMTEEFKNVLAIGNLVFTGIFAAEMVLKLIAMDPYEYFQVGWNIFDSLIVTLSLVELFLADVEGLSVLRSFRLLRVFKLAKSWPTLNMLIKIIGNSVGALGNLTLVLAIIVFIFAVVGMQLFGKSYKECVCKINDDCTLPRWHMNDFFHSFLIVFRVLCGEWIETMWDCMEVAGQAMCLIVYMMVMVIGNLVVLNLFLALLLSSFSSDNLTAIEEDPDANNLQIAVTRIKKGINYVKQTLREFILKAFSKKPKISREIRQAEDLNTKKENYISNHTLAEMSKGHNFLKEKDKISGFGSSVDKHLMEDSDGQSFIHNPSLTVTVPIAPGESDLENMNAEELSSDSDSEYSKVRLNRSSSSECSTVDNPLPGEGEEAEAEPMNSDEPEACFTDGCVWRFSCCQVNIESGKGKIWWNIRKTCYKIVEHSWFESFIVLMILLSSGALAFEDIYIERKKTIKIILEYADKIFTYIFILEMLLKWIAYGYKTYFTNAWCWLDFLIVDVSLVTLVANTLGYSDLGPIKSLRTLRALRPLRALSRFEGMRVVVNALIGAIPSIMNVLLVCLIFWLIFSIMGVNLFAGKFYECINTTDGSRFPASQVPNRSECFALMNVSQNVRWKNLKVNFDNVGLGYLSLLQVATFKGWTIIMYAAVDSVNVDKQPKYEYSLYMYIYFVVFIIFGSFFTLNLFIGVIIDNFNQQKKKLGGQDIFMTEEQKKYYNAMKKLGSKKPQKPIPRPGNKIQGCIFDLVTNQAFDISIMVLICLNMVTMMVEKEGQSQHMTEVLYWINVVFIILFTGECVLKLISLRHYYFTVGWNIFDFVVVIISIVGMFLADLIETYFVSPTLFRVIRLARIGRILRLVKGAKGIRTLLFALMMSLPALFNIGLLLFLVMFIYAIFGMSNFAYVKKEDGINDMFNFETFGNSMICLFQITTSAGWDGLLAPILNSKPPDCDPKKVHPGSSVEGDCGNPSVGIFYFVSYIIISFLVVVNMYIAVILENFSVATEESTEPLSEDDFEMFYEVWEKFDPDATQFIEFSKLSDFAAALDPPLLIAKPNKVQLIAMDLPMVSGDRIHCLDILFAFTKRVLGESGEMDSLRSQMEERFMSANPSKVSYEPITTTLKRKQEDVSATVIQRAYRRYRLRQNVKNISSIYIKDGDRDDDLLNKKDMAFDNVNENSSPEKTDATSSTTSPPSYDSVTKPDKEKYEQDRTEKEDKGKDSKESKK", "test": "FLIPR or FLIPR TETRA sodium dye assay with KCl and test article pre-incubation", "assay_type": "cell-based", "conditions": "read-out: FLIPR Nav1.7 IC50 (μM) ± SEM"}, "hNav1.7": {"target": "hNav1.7 (Homo sapiens (Human), UniProt Q15858)", "sequence (Q15858 other isoform, or with tags, fused parts or gaps)": "as above", "test": "Electrophysiology (EP) assay, whole-cell patch clamp", "assay_type": "cell-based", "conditions": "hNav1.7 expressing HEK-293 cells, read-out: EP Nav1.7 Ki", "protocol": "Cells: The hNav1.7 expressing HEK-293 cells were plated on 35 mm culture dishes pre-coated with poly-D-lysine in standard DMEM culture media (Mediatech, Inc., Herndon, Va.) and incubated in a 5% CO2 incubator at 37° C. Cultured cells were used approximately 12-48 hours after plating.\nElectrophysiology: On the day of experimentation, the 35 mm dish was placed on the stage of an inverted microscope equipped with a perfusion system that continuously perfuses the culture dish with fresh recording media. A gravity driven superfusion system was used to apply test solutions directly to the cell under evaluation. This system consists of an array of glass pipette glass connected to a motorized horizontal translator. The outlet of the shooter was positioned approximately 100 μm from the cell of interest.\nGigaseals were formed and the whole-cell configuration was established in voltage clamp mode, and membrane currents generated by hNav1.7 were recorded in gap-free mode. […] Signals were sampled at 50 kHz and low pass filtered at 3 kHz.\nThe voltage clamp protocol to examine hNav1.7 currents was as follows. […] The amount of inhibition produced by the test compound was determined by comparing the current amplitude elicited by the test pulse in the absence and presence of the compound. […]"}, "[1]": {"conditions": "recombinant human Nav1.7 in HEK293 cells, sodium dye assay with KCl"}}, "note": "Like-named read-outs stand apart in the source and are kept apart here.", "data": [{"molecule": "N#Cc1cccc(Oc2ccc(-n3cc(C[C@H](N)CO)c4ccccc43)cc2)c1", "note": "[Compound 57, (S)-5-{4-[3-(2-Amino-3-hydroxypropyl)-1H-indol-1-yl]phenoxy}benzonitrile]", "values": [{"measurement": "IC50", "setting": "human Nav1.7; [1]", "value": "0.383 ± 0.081", "unit": "µM"}, {"measurement": "Ki", "setting": "hNav1.7", "value": 0.05, "unit": "µM"}]}, {"molecule": "CN(C)CCc1cn(-c2ccc(Oc3ccccc3)cc2)c2ccc(C[C@H]3COC(=O)N3)cc12", "note": "[Compound 45, (S)-4-{[3-(2-(Dimethylamino)ethyl)-1-(4-phenoxyphenyl)-1H-indol-5-yl]methyl}oxazolidin-2-one]", "values": [{"measurement": "IC50", "setting": "human Nav1.7; [1]", "value": "1.9 ± 0.636", "unit": "µM"}, {"measurement": "Ki", "setting": "hNav1.7", "value": 1.31, "unit": "µM"}]}, {"molecule": "CCOC(=O)C(Cc1c[nH]c2ccc(-c3ccc(Oc4ccccc4)cc3)cc12)[N+](=O)[O-]", "note": "(centres unmarked) [Compound 6, 2-Nitro-3-[5-(4-phenoxyphenyl)-1H-indol-3-yl]propionic acid ethyl ester]", "values": [{"measurement": "IC50", "setting": "human Nav1.7; [1]", "value": "5.14 ± 0.954", "unit": "µM"}]}, {"molecule": "(S)-3-(1-(4-(4-fluorophenoxy)phenyl)-1H-pyrrolo[2,3-c]pyridin-3-yl)propane-1,2-diol [Compound 170]", "values": [{"measurement": "IC50", "setting": "human Nav1.7; [1]", "value": "1.38 ± 0.542", "unit": "µM"}]}, {"molecule": "NCCc1cn(-c2ccc(Oc3ccccc3)cc2)c2ccccc12", "note": "[Compound 43, 2-(1-(4-Phenoxyphenyl)-1H-indol-3-yl)ethanamine]", "values": [{"measurement": "IC50", "setting": "human Nav1.7; [1]", "value": "0.684 ± 0.041", "unit": "µM"}]}, {"molecule": "O=C(NCCO)c1nn(-c2ccc(Oc3ccccc3)cc2)c2ccccc12", "note": "[Compound 144, N-(2-hydroxyethyl)-1-(4-phenoxyphenyl)-1H-indazole-3-carboxamide]", "values": [{"measurement": "IC50", "setting": "human Nav1.7", "value": "0.16 ± 0.049", "unit": "µM"}]}, {"molecule": "N#Cc1cc(Oc2ccc(-n3nc(C(N)=O)c4ccccc43)cc2)ccc1C(F)(F)F", "note": "[Compound 152, 1-(4-(3-cyano-4-(trifluoromethyl)phenoxy)-phenyl)-1H-indazole-3-carboxamide]", "values": [{"measurement": "IC50", "setting": "human Nav1.7; [1]", "value": "0.602 ± 0.053", "unit": "µM"}]}, {"molecule": "NC(=O)c1nn(-c2ccc(Oc3ccc(C(F)(F)F)cc3)cc2)c2ccc(F)cc12", "note": "[Compound 150, 5-fluoro-1-(4-(4-(trifluoromethyl)phenoxy)phenyl)-1H-indazole-3-carboxamide]", "values": [{"measurement": "IC50", "setting": "human Nav1.7; [1]", "value": "6.97 ± 0.934", "unit": "µM"}]}, {"molecule": "N#Cc1cc(Oc2ccc(-n3cc(C(=O)C(=O)NC[C@H](O)CO)c4ccccc43)cc2)ccc1C(F)(F)F", "note": "[Compound 68, (S)-2-(1-(4-(3-cyano-4-(trifluoromethyl)phenoxy)-phenyl)-1H-indol-3-yl)-N-(2,3-dihydroxypropyl)-2-oxoacetamide]", "values": [{"measurement": "IC50", "setting": "human Nav1.7; [1]", "value": "0.572 ± 0.137", "unit": "µM"}]}, {"molecule": "N#Cc1cc(Oc2ccc(-n3cc(C(=O)C(N)=O)c4ccccc43)cc2)ccc1C(F)(F)F", "note": "[Compound 59, 2-(1-(4-(3-Cyano-4-(trifluoromethyl)phenoxy)phenyl)-1H-indol-3-yl)-2-oxoacetamide]", "values": [{"measurement": "IC50", "setting": "human Nav1.7", "value": "3.54 ± 0.459", "unit": "µM"}]}, {"molecule": "N#Cc1cc(Oc2ccc(-n3cc(C(=O)C(=O)O)c4cc([C@@H](O)CO)ccc43)cc2)ccc1C(F)(F)F", "note": "[Compound 98, (R)-2-(1-(4-(3-cyano-4-(trifluoromethyl)phenoxy)-phenyl)-5-(1,2-dihydroxyethyl)-1H-indol-3-yl)-2-oxoacetic acid]", "values": [{"measurement": "IC50", "setting": "human Nav1.7; [1]", "value": "> 20", "unit": "µM"}]}, {"molecule": "N#Cc1cc(Oc2ccc(-n3cc(C[C@H]4COC(=O)N4)c4ccccc43)cc2)ccc1C(F)(F)F", "note": "[Compound 46, (S)-5-{4-[3-((2-Oxooxazolidin-4-yl)methyl)-1H-indol-1-yl]phenoxy}-2-(trifluoromethyl)benzonitrile]", "values": [{"measurement": "IC50", "setting": "human Nav1.7; [1]", "value": "0.715 ± 0.126", "unit": "µM"}]}]}
